The results in this text go back to PubChem BioAssay AID1259411 (Chemical Carcinogenesis Research Information System (CCRIS), 2018).

Each structure is given as a SMILES string. The source made the active and inactive calls. How the calls were made is not given here.

This data set has as its system rodent carcinogenicity bioassays, tumor incidence. The experiment in a line: CCRIS carcinogenicity studies. In short, it runs like this:
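Archive of carcinogenicity, mutagenicity, tumor promotion and tumor inhibition results drawn from journals, NCI reports and other sources, expert-reviewed; covers 1985-2011 and is no longer updated.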

`Cc1cc(-c2ccccc2C)ccc1N`: the carcinogen call is, setting by setting: (Species: HAMSTER, Strain/Sex: SYRIAN/FEMALE, Route: SUBCUTANEOUS, Dose: 0, 100 MG/KG BW 1/WK FOR 20 WK (STUDY DURATION: 50 WK), Tumor Site: Type of Lesion: URINARY BLADDER: CARCINOMA) “active; positive”; (Species: HAMSTER, Strain/Sex: SYRIAN/FEMALE, Route: SUBCUTANEOUS, Dose: 0.15 MMOL/KG IN PEANUT OIL 1/WK FOR 37 WK (TOTAL DOSE: 5.6 MMOL/KG), Tumor Site: Type of Lesion: URINARY BLADDER: TRANSITIONAL CELL CARCINOMA, SQUAMOUS CELL CARCINOMA) “active; positive”; (Species: HAMSTER, Strain/Sex: SYRIAN/MALE,FEMALE, Route: SUBCUTANEOUS, Dose: 100 MG/KG 1/WK FOR 52 WK, Tumor Site: Type of Lesion: URINARY BLADDER: PAPILLOMA, CARCINOMA) “active; positive”; (Species: HAMSTER, Strain/Sex: SYRIAN/MALE, Route: SUBCUTANEOUS, Dose: 0, 100 MG/KG BW 1/WK FOR 20 WK (STUDY DURATION: 50 WK), Tumor Site: Type of Lesion: URINARY BLADDER: CARCINOMA) “active; positive”; (Species: HAMSTER, Strain/Sex: SYRIAN/MALE, Route: SUBCUTANEOUS, Dose: 0, 100 MG/KG IN PEANUT OIL 1/WK FOR 8 WK, THEN ONCE EVERY 2 WK FOR 18 MO (TOTAL MAXIMUM DOSE: 555 MG), Tumor Site: Type of Lesion: URINARY BLADDER: TRANSITIONAL CELL CARCINOMA, FORESTOMACH: SQUAMOUS CELL PAPILLOMA, INTESTINES (SMALL): ADENOCARCINOMA;, Tumor Site: Type of Lesion: URINARY BLADDER: TRANSITIONAL CELL CARCINOMA, FORESTOMACH: SQUAMOUS CELL PAPILLOMA, INTESTINES (SMALL): ADENOCARCINOMA) “active; positive”; (Species: HAMSTER, Strain/Sex: SYRIAN/MALE, Route: SUBCUTANEOUS, Dose: 0.15 MMOL/KG IN PEANUT OIL 1/WK FOR 37 WK (TOTAL DOSE: 5.6 MMOL/KG), Tumor Site: Type of Lesion: URINARY BLADDER: TRANSITIONAL CELL CARCINOMA) “active; positive”. Further, the carcinogen call was “active; positive” (Species: RAT, Strain/Sex: ALBINO/MALE, Route: SUBCUTANEOUS, Dose: 2.8-3.5 G/KG, Tumor Site: Type of Lesion: INTESTINES, SALIVARY GLAND, EAR (DUCT), Tumor Site: Type of Lesion: INTESTINES, SALIVARY GLAND, EAR (DUCT)); “active; positive” (Species: RAT, Strain/Sex: F344/MALE, Route: SUBCUTANEOUS, Dose: 0, 150 MG/KG 1/WK FOR 3 WK FOLLOWED BY HIGH FAT DIET (20% CORN OIL) BEGINNING 12 WK POST LAST CARCINOGEN DOSE AND CONTIN, Tumor Site: Type of Lesion: PANCREAS: ADENOMA OR CARCINOMA); “active; positive” (Species: RAT, Strain/Sex: F344/MALE, Route: SUBCUTANEOUS, Dose: 0, 150 MG/KG 1/WK FOR 3 WK FOLLOWED BY NORMAL FAT DIET (4.5% CORN OIL) BEGINNING 12 WK POST LAST CARCINOGEN DOSE AND CON, Tumor Site: Type of Lesion: PANCREAS: ADENOMA OR CARCINOMA); “active; positive” (Species: RAT, Strain/Sex: F344/MALE, Route: SUBCUTANEOUS, Dose: 20 MG/KG 1/WK FOR 42 WK OR 50 MG/KG 1/WK FOR 20 WK, Tumor Site: Type of Lesion: PROSTATE GLAND: CARCINOMA (IN SITU)); “active; positive” (Species: RAT, Strain/Sex: WISTAR/FEMALE, Route: SUBCUTANEOUS, Dose: 2 MG/100 G 5/WK FOR 12 WK, Tumor Site: Type of Lesion: MAMMARY GLAND: CARCINOMA); “active; positive” (Species: RAT, Strain/Sex: WISTAR/MALE,FEMALE, Route: SUBCUTANEOUS, Dose: 2 MG/100 G 5/WK FOR LIFE, Tumor Site: Type of Lesion: INTESTINES (LARGE): POLYPLOID TUMOR (MULTIPLE)).

For `CON(C)C(=O)Nc1ccc(Cl)c(Cl)c1`, the carcinogen call by setting is: (Species: Mouse, Strain/Sex: CD-1/Female (80/Group), Route: Oral, Dose: 0, 50, 150, 1500 ppm of 97% linuron in diet for 24 mo, study duration 24 mo, Dose: 0, 50, 150, 1500 ppm of 97% linuron in diet for 24 mo, study duration 24 mo, Tumor Site: Type of Lesion: Liver: hepatocellular adenomas (high dose only)) “active; positive”; (Species: Mouse, Strain/Sex: CD-1/Male (80/Group), Route: Oral, Dose: 0, 50, 150, 1500 ppm of 97% linuron in diet for 24 mo, study duration 24 mo, Dose: 0, 50, 150, 1500 ppm of 97% linuron in diet for 24 mo, study duration 24 mo) “inactive; negative”; (Species: Rat, Strain/Sex: Charles River CD/Female (70/Group), Route: Oral, Dose: 0, 50, 125, 625 ppm 97% linuron in diet for 24 mo, study duration 24 mo, Dose: 0, 50, 125, 625 ppm 97% linuron in diet for 24 mo, study duration 24 mo) “inactive; negative”; (Species: Rat, Strain/Sex: Charles River CD/Male (70/Group), Route: Oral, Dose: 0, 50, 125, 625 ppm 97% linuron in diet for 24 mo, study duration 24 mo, Dose: 0, 50, 125, 625 ppm 97% linuron in diet for 24 mo, study duration 24 mo, Tumor Site: Type of Lesion: Testes: Interstitial cell adenoma) “active; positive”; (Species: Rat, Strain/Sex: Crl:CD (SD)BR /Male (25/Group), Route: Oral, Dose: 0 (control diet), control diet for 18 mo followed by 625 ppm linuron for 6 mo, control diet for 1 yr followed by 625 ppm, Dose: 0 (control diet), control diet for 18 mo followed by 625 ppm linuron for 6 mo, control diet for 1 yr followed by 625 ppm, Tumor Site: Type of Lesion: Testes: interstitial cell tumors (0/25, 2/25 (6-mo. feed), 6/25 (12 mo feed))) “active; positive”.

With `NCC(=O)O`, the carcinogen call is “inactive; negative” (Species: RAT, Strain/Sex: F344/FEMALE, Route: ORAL, Dose: 0, 2.5, 5% IN DRINKING WATER FOR 108 WK (STUDY DURATION: 108 WK), Dose: 0, 2.5, 5% IN DRINKING WATER FOR 108 WK (STUDY DURATION: 108 WK)) and “inactive; negative” (Species: RAT, Strain/Sex: F344/MALE, Route: ORAL, Dose: 0, 2.5, 5% IN DRINKING WATER FOR 108 WK (STUDY DURATION: 108 WK), Dose: 0, 2.5, 5% IN DRINKING WATER FOR 108 WK (STUDY DURATION: 108 WK)).
